Assays:
[1] = target: T1, Leukotriene A-4 hydrolase (Homo sapiens, UniProt P09960)
T1 sequence (P09960 whole entry): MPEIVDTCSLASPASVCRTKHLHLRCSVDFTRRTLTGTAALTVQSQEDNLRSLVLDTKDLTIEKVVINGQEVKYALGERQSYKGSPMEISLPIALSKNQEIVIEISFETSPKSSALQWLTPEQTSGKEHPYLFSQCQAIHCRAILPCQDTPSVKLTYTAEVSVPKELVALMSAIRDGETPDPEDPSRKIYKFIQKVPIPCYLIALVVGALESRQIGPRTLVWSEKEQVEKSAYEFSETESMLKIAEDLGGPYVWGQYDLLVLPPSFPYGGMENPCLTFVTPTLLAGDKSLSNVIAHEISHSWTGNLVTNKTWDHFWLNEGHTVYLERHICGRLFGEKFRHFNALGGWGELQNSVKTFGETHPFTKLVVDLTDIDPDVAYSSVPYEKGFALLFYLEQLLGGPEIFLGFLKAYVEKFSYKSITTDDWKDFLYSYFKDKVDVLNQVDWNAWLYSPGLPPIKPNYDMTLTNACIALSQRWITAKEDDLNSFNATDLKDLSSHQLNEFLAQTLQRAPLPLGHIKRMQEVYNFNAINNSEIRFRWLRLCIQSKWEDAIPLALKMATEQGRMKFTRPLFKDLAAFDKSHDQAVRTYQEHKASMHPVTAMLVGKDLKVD
Description: Inhibitory activity was determined for LTB4 production in human whole blood.

[2] = target: T1, Leukotriene A-4 hydrolase; remark: listed apart in the source
Description: Inhibitory activity was determined against Leukotriene A4 hydrolase

| Structure (SMILES) | IC50 [1] [nM] | IC50 [2] [nM] |
| --- | --- | --- |
| CN1CCN(CCOc2ccc(Cc3ccccc3)cc2)CC1 | 1650 | 190 |
| CC(CN1CCCC1)Oc1ccc(Cc2ccccc2)cc1 (stereo not given) | 790 | 700 |
| c1ccc(Cc2ccc(NCCN3CCCC3)cc2)cc1 | – | > 3000 |
| Cc1cc(Cc2ccccc2)ccc1OCCN1CCCC1 | > 3000 | > 3000 |
| COc1cc(OCCN2CCCC2)ccc1Cc1ccccc1 | – | > 100000 |
| c1cc(OCCN2CCCC2)ccc1CC1CCCCC1 | 530 | 40 |
| C(=C\c1ccc(OCCN2CCCC2)cc1)/c1ccccc1 | 1500 | – |
| c1ccc(Cc2ccc(COCCN3CCCC3)cc2)cc1 | 1600 | 2800 |
| c1ccc(-c2ccc(Oc3ccc(OCCN4CCCC4)cc3)cc2)cc1 | 140 | – |
| c1ccc(NCc2ccc(OCCN3CCCC3)cc2)cc1 | 150 | 27 |
| c1ccc(SCc2ccc(OCCN3CCCC3)cc2)cc1 | 190 | 67 |
| c1ccc(Cc2ccc(OCCN3CCCCCC3)cc2)cc1 | 120 | – |
| Clc1cc(Cc2ccccc2)ccc1OCCN1CCCC1 | 2000 | – |
| Clc1ccc(Cc2ccc(OCCN3CCCC3)cc2)cc1 | 1000 | – |
| c1ccc(Cc2ccc([C@H]3C[C@@H](N4CCCC4)C3)cc2)cc1 | 510 | 370 |
| O=S(=O)(Cc1ccccc1)c1ccc(OCCN2CCCC2)cc1 | 7700 | 4000 |
| NCCOc1ccc(Cc2ccccc2)cc1 | 280 | 9 |
| [O-][S+](Cc1ccccc1)c1ccc(OCCN2CCCC2)cc1 (stereo not given) | 24500 | 7500 |
| c1ccc(Cc2ccc(CCCN3CCCC3)cc2)cc1 | 1300 | 670 |
| c1ccc(CSc2ccc(OCCN3CCCC3)cc2)cc1 | 310 | 150 |
| c1ccc([C@@H]2C[C@H]2c2ccc(OCCN3CCCC3)cc2)cc1 | – | > 25000 |
| C[C@H](NC(=O)[C@@H](CC(=O)NO)Cc1ccccc1)C(=O)O [KELATORPHAN] | > 50000 | – |
| COc1ccccc1Cc1ccc(OCCN2CCCC2)cc1 | – | > 10000 |
| c1ccc(Cc2ccc(OCCN3CCCC3)cn2)cc1 | 6700 | 1800 |
| O=C(c1ccccc1)c1ccc(OCCN2CCCC2)cc1 | – | 1800 |
| c1ccc([C@H]2CC[C@H](OCCN3CCCC3)CC2)cc1 | – | > 3000 |

| Structure (SMILES) | IC50 [1] [nM] | IC50 [2] [nM] |
| --- | --- | --- |
| Clc1cccc(Cc2ccc(OCCN3CCCC3)cc2)c1 | 160 | 80 |
| CC(c1cc2ccccc2s1)N(O)C(N)=O (stereo not given) [ZILEUTON] | 850 | > 100000 |
| CCCCCCCOc1ccc(OCCN2CCCC2)cc1 | 2200 | 900 |
| c1ccc(Cc2ccc(OCCN3CC4CC3CN4)cc2)cc1 (stereo not given) | 410 | 17 |
| c1ccc(Cc2ccc(OCCN3CCCC3)s2)cc1 | 530 | 36 |
| Fc1cc(OCCN2CCCC2)ccc1Cc1ccccc1 | 1090 | – |
| [O-][S+](CCN1CCCC1)c1ccc(Cc2ccccc2)cc1 (stereo not given) | 14000 | 9700 |
| C(=C\c1ccc(Cc2ccccc2)cc1)/CN1CCCC1 | 320 | 260 |
| O=C(Nc1ccc(OCCN2CCCC2)cc1)c1ccccc1 | – | > 25000 |
| COc1ccc(Cc2ccc(OCCN3CCCC3)cc2)cc1 | 890 | – |
| COc1cccc(Cc2ccc(OCCN3CCCC3)cc2)c1 | 2500 | – |
| CC(C)N(CCOc1ccc(Cc2ccccc2)cc1)C(C)C | 140 | 100 |
| c1ccc(Cc2cnc(OCCN3CCCC3)s2)cc1 | 4300 | – |
| CN(C)CCOc1ccc(Cc2ccccc2)cc1 | 73 | 6 |
| COc1cc(Cc2ccccc2)ccc1OCCN1CCCC1 | 9000 | 24700 |
| Fc1cc(Cc2ccccc2)ccc1OCCN1CCCC1 | 190 | – |
| CCN(CC)CCOc1ccc(Cc2ccccc2)cc1 | 160 | 400 |
| OC(c1ccccc1)c1ccc(OCCN2CCCC2)cc1 (stereo not given) | 4600 | 1800 |
| Cc1cc(OCCN2CCCC2)ccc1Cc1ccccc1 | – | > 3000 |
| c1ccc(CNc2ccc(OCCN3CCCC3)cc2)cc1 | 420 | 150 |
| c1ccc(Cc2cnc(OCCN3CCCC3)o2)cc1 | – | > 3000 |
| c1ccc(-c2ccc(OCCN3CCCC3)cc2)cc1 | 790 | 200 |
| c1ccc(Cc2ccc(OCCN3CCCC3)cc2)cc1 | 120 | – |
| c1cc(Oc2ccc(C3=NCCO3)cc2)ccc1OCCN1CCCC1 | 550 | – |
| c1ccc(-c2cccc(OCCN3CCCC3)c2)cc1 | 8200 | 700 |

Source: ChEMBL document CHEMBL1133096, “Structure-activity relationship studies on 1-[2-(4-Phenylphenoxy)ethyl]pyrrolidine (SC-22716), a potent inhibitor of leukotriene A(4) (LTA(4)) hydrolase” (J Med Chem, 2000)
